The supplement of paper PMC10307832

Experiments:
Test in all cases: relative viability (nuclei count vs DMSO), 5 days (fraction); higher = more cells survive
Adavosertib + Alpelisib = compound: C=CCn1c(=O)c2cnc(Nc3ccc(N4CCN(C)CC4)cc3)nc2n1-c1cccc(C(C)(C)O)n1 [Adavosertib] + Cc1nc(NC(=O)N2CCC[C@H]2C(N)=O)sc1-c1ccnc(C(C)(C)C(F)(F)F)c1 [Alpelisib] (partner 2 µM)
Outline: (§1)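 The day after seeding in 1536-well plates, lung cancer cell lines were treated by pin tool with a single drug, or with a fixed anchor-drug dose together with five library-drug doses (not always all listed) in √10 steps. After 5 days, a combined fix-and-stain solution (final 0.05% Triton X-100, 1% formaldehyde, 1 ug/ml Hoechst) was added. Nuclei counted on 4× images gave relative viability as treated counts over vehicle counts, reported as the median of duplicate plates.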

Nelarabine + Lapatinib = compound: COc1nc(N)nc2c1ncn2[C@@H]1O[C@H](CO)[C@@H](O)[C@@H]1O [Nelarabine] + CS(=O)(=O)CCNCc1ccc(-c2ccc3ncnc(Nc4ccc(OCc5cccc(F)c5)c(Cl)c4)c3c2)o1 [Lapatinib] (partner 2 µM)
Outline: as §1

Adavosertib + Decitabine = compound: C=CCn1c(=O)c2cnc(Nc3ccc(N4CCN(C)CC4)cc3)nc2n1-c1cccc(C(C)(C)O)n1 [Adavosertib] + Nc1ncn([C@H]2C[C@H](O)[C@@H](CO)O2)c(=O)n1 [Decitabine] (partner 2 µM)
Outline: as §1

Nelarabine + Alpelisib = compound: COc1nc(N)nc2c1ncn2[C@@H]1O[C@H](CO)[C@@H](O)[C@@H]1O [Nelarabine] + Cc1nc(NC(=O)N2CCC[C@H]2C(N)=O)sc1-c1ccnc(C(C)(C)C(F)(F)F)c1 [Alpelisib] (partner 2 µM)
Outline: as §1

| Cell Line | relative viability (Adavosertib + Alpelisib; first compound 0.01 µM) | relative viability (Adavosertib + Alpelisib; first compound 0.03162 µM) | relative viability (Adavosertib + Alpelisib; first compound 0.1 µM) | relative viability (Adavosertib + Alpelisib; first compound 0.3162 µM) | relative viability (Nelarabine + Lapatinib; first compound 0.01 µM) | relative viability (Nelarabine + Lapatinib; first compound 0.03162 µM) | relative viability (Nelarabine + Lapatinib; first compound 0.1 µM) | relative viability (Nelarabine + Lapatinib; first compound 0.3162 µM) | relative viability (Nelarabine + Lapatinib; first compound 1 µM) | relative viability (Adavosertib + Decitabine; first compound 0.01 µM) | relative viability (Adavosertib + Decitabine; first compound 0.03162 µM) | relative viability (Adavosertib + Decitabine; first compound 0.1 µM) | relative viability (Adavosertib + Decitabine; first compound 0.3162 µM) | relative viability (Nelarabine + Alpelisib; first compound 0.01 µM) | relative viability (Nelarabine + Alpelisib; first compound 0.03162 µM) | relative viability (Nelarabine + Alpelisib; first compound 0.1 µM) | relative viability (Nelarabine + Alpelisib; first compound 0.3162 µM) | relative viability (Nelarabine + Alpelisib; first compound 1 µM) |
| --- | --- | --- | --- | --- | --- | --- | --- | --- | --- | --- | --- | --- | --- | --- | --- | --- | --- | --- |
| NCI-H358 | 0.831 | 0.769 | 0.693 | 0.336 | 0.518 | 0.436 | 0.421 | 0.405 | 0.431 | 0.246 | 0.201 | 0.188 | 0.193 | 0.906 | 0.839 | 0.62 | 0.845 | 0.857 |
| NCI-H520 | 0.884 | 0.887 | 1.03 | 0.717 | 0.991 | 0.947 | 1.31 | 0.889 | 0.887 | 0.488 | 0.525 | 0.555 | 0.473 | 1.16 | 0.924 | 1.16 | 1.03 | 1.1 |
| NCI-H2405 | 0.765 | 0.878 | 0.874 | 0.764 | 1.14 | 1.13 | 0.904 | 1.06 | 1.04 |  | 0.761 | 0.794 | 0.698 | 0.842 | 0.794 | 0.74 | 0.647 | 0.801 |
| NCI-H2023 | 0.512 | 0.602 | 0.548 | 0.39 | 1.48 | 1.15 | 0.642 | 0.812 | 0.948 | 0.203 | 0.224 | 0.191 | 0.141 | 0.634 | 0.769 | 0.559 | 0.594 | 0.55 |
| NCI-H1975 | 0.736 | 0.63 | 0.546 | 0.339 | 1.27 | 0.958 | 0.92 | 1.11 | 0.982 | 0.37 | 0.412 | 0.439 | 0.399 | 0.785 | 0.489 | 0.73 | 0.773 | 0.764 |
| EPLC-272H | 0.918 | 0.893 | 0.868 | 0.723 | 1.12 | 0.798 | 0.976 | 1.02 | 0.86 | 0.355 | 0.344 | 0.448 | 0.308 | 0.986 | 0.932 | 1.03 | 0.926 | 0.808 |
| ChaGo-K-1 |  |  |  |  |  |  |  |  |  | 0.554 | 0.518 | 0.469 | 0.534 |  |  |  |  |  |
| NCI-H2228 | 0.839 | 0.694 | 0.829 | 0.343 | 1.1 | 1.1 |  | 0.974 | 0.977 |  |  |  |  | 0.882 | 0.595 |  | 0.815 | 0.676 |
| NCI-H650 | 1.15 | 1.1 | 1.17 | 0.935 | 0.97 | 0.842 | 0.929 | 1.07 | 0.887 | 0.352 | 0.319 | 0.342 | 0.286 | 1.38 | 1.08 | 1 | 1.14 | 1.24 |
| NCI-H1648 |  |  |  |  |  |  |  |  |  | 0.491 | 0.527 | 0.448 | 0.422 |  |  |  |  |  |
| NCI-H1651 | 0.833 | 1.06 | 0.936 | 0.687 | 1.1 | 1.02 | 1.05 | 0.881 | 0.854 | 0.578 | 0.681 | 0.603 | 0.525 | 1.15 | 0.963 | 1.12 | 1.02 | 0.855 |
| NCI-H522 |  |  |  |  |  |  |  |  |  | 0.691 | 0.692 | 0.776 | 0.745 |  |  |  |  |  |
| NCI-H1993 | 0.733 | 0.65 | 0.723 | 0.68 | 0.836 | 0.774 | 0.81 | 0.67 | 0.785 | 0.58 | 0.593 | 0.617 | 0.585 | 0.704 | 0.736 | 0.756 | 0.712 | 0.689 |
| HCC-827 | 1 | 1.05 | 0.995 | 0.838 | 0.196 | 0.205 | 0.169 | 0.179 | 0.194 | 0.15 | 0.344 | 0.341 | 0.214 | 0.999 | 0.848 | 0.839 | 0.784 | 0.595 |
| NCI-H1299 | 1.06 | 0.979 | 1.07 | 0.997 | 1 | 0.999 | 1.02 | 0.98 | 1 |  |  |  |  | 1.16 | 1.11 | 1.04 | 1.08 | 1.2 |
| SW 1573 | 0.724 | 0.786 | 0.751 | 0.761 | 1.14 | 1.13 | 1.11 | 1.18 | 1.2 | 0.503 | 0.535 | 0.663 | 0.291 | 0.57 | 0.848 | 0.803 | 0.806 | 0.818 |
| SW 900 |  |  |  |  |  |  |  |  |  | 0.442 | 0.464 | 0.461 | 0.312 |  |  |  |  |  |
| NCI-H1563 | 0.924 | 0.943 | 0.949 | 1.12 | 0.944 | 1.02 | 0.985 | 0.998 | 1.03 |  |  |  |  | 0.956 | 0.858 | 0.886 | 1 | 0.919 |
| NCI-H2342 |  |  |  |  |  |  |  |  |  | 0.72 | 0.768 | 0.755 | 0.932 |  |  |  |  |  |
| LCLC-103H | 0.973 | 0.926 | 1.04 | 0.94 |  |  |  |  |  | 0.71 | 0.722 | 0.73 | 0.721 | 1.01 | 0.989 | 0.985 | 0.936 | 0.956 |
| IA-LM | 0.649 | 0.731 | 0.833 | 0.931 | 1.01 | 0.74 | 0.829 | 0.9 | 0.932 |  |  |  |  | 0.928 | 0.957 | 0.789 | 0.871 | 0.826 |
| NCI-H441 | 0.807 | 0.745 | 0.764 | 0.596 |  |  |  |  |  | 0.29 | 0.266 | 0.264 | 0.289 | 0.974 | 0.675 | 0.704 | 0.921 | 0.986 |
| NCI-H1650 |  |  |  |  | 0.882 | 0.834 | 0.783 | 0.831 | 0.826 | 0.449 | 0.415 | 0.564 | 0.27 |  |  |  |  |  |
| Calu-6 | 0.983 | 0.856 | 0.94 | 0.793 | 1.29 | 1.04 | 1.08 | 1.18 | 1.14 |  |  |  |  | 1.1 |  | 0.979 | 0.972 | 1.11 |
